Measured values reported in patent US20130059324A1, “SYSTEMS AND METHODS FOR MECHANICALLY STRAINED CELL CULTURE” (THE UNIVERSITY OF KANSAS, priority 2010, published 2013).
pIC50: −log10 of the molar value.

Key:
[1] = tested on: H358 cells; assay: Prototype 96-well plate, viable cell count (Vi-Cell) with and without mechanical forces; assay type: cell-based, human
Experimental: After allowing the cells to adhere to the flexible membrane of the 96 well plate for 24 hours, the loading pins and the system described in FIG. 7 to implement mechanical strain were used to deliver 20% maximum strain for 2 seconds to the plate assigned for mechanical forces (+M Group), followed by 2 seconds of rest (15 cycles per minute with an average strain of 10% per cycle) in keeping with a normal human respiration.
In a parallel experiments, the cells were treated with anti-tumor drug after 72 hours of initial seeding (after 48 hours of mechanical stretching). The drug was dissolved in dimethyl sulfoxide (DMSO) at stock concentration and added to the respective media. An aliquot of 50 μl of drug stock solution was added to the well containing 100 μl of media (a 1:3 dilution) in a drug plate to get the desired IC90 concentration of the drug (Table 1). The IC90 concentrations of the drugs were then added to prototype plate.
The +M Group was subjected to continuous mechanical stretching while the −M Group plate was placed in the same incubator for additional 24 hours.
In order to quantify viability, 6 wells per treatment group for ViCell counter and 6 wells per condition for MTS were assigned to determine the cell viability. Using Vi-Cell counter, assigned wells were filled with extra 210 μl of media to keep the volume constant in all the wells.

[2] = tested on: A549 cells; assay: Prototype 96-well plate, MTS assay with and without mechanical forces; assay type: cell-based, human; conditions: A549, drug at IC90, 24 hours, 490 nm
Experimental: (§1) The prototype plate was read using the Biotek plate reader at the wavelength of 490 nm until the media only wells absorbance reached 1.0. For the +M group plate, 30 ul of MTS was added to the assigned wells and kept in the incubator for the same amount of time that required for the −M group to develop and read at the same wavelength.

[3] = tested on: H358 cells; assay: as above; assay type: cell-based, human; conditions: drug at IC90, 24 hours, 490 nm
Experimental: as §1

[4] = tested on: cells in a static monolayer culture; assay: IC90 in static monolayer culture (tested concentration); assay type: cell-based; conditions: concentration that inhibits the growth of 90% of the cells in a static monolayer culture
Experimental: Table 1 includes a list of investigated chemotherapeutic drugs, their mechanisms of action and the tested concentrations.
After 72 hours of initial seeding, one of the five drugs was added to Treatments 3 and 6 of each cell line. […] The IC90, concentration of the drug that inhibits the growth of 90% of the cells in a static monolayer culture, was used to assure a significant inhibition in the absence of simulated forces. To insure comparability, an aliquot of 1 ml of media without the drug was added to each well in Treatments 2 and 5. After adding the drug or 1 ml of media, the plates from Treatments 5 and 6 were placed back on the baseplate and subjected to the same force profile as before for the remaining 72 hours. Plates from Treatments 2 and 3 (without forces) were placed in the same incubator for the remaining 72 hours.

[5] = tested on: H358 cells grown as 3D tissues; assay: 3D culture antiproliferative MTS assay in collagen with and without mechanical forces; assay type: cell-based; conditions: Homo sapiens, NCI-H358, 72 h, H358 3D in collagen, 72 hours exposure
Experimental: Effects of mechanical forces on engineered 3-dimensional tumor tissues were also studied, An experiment was conducted with paclitaxel, which was tested in the presence and absence of mechanical forces in H358 cells (bronchioalveolar carcinoma) grown as 3D tissues in type 1 rat tail collagen scaffold. The cells were seeded at a density of 4×10^6 cells per well in 6-well Bioflex collagen I plates and cultured in PRMI 1640 medium The forces that were tested were configured to mimic normal respiration. After 24 hours of seeding, cells were stretched from 0% to a maximum of 20% elongation for 2 seconds followed by 2 seconds of rest continuously for 4 days. Control group included cells that were plated in collagen at the same densities and incubated for 5 days without mechanical forces. […] As a note, a computing system similar to FIG. 6 can be used to control an experiment system in order to provide predetermined cycles of mechanical strain and relaxation.
Following 24 hours of stetching, paclitaxel was added to H358 cells in ten 1:3 dilutions with starting concentrations 100 μM. […] Dose response curves were plotted and corresponding IC50 values (concentration of the drug at which 50% of the cells are inhibited) were calculated for stretched and un-stretched conditions using Graphpad Prism software.

CC(=O)O[C@H]1C(=O)[C@@]2(C)[C@H]([C@H](OC(=O)c3ccccc3)[C@]3(O)C[C@H](OC(=O)[C@H](O)[C@@H](NC(=O)c4ccccc4)c4ccccc4)C(C)=C1C3(C)C)[C@]1(OC(C)=O)CO[C@@H]1C[C@@H]2O [Paclitaxel]
Effect of mechanical forces on viable cell count / cytotoxicity ([1]; 24 hours drug exposure, prototype 96-well plate): remained unaffected | Viable Cell Count after 24 hours of drug exposure, With forces (Ef) ([1]; drug at IC90, 24 hours, mechanical forces): 9687.5 | Viable Cell Count after 24 hours of drug exposure, Without forces (E) ([1]; drug at IC90, 24 hours, no forces): 21250.0 | MTS absorbance after 24 hours of drug exposure, With forces (Ef) ([2]; mechanical forces): 0.293 | MTS absorbance after 24 hours of drug exposure, Without forces (E) ([2]; no forces): 0.567 | MTS absorbance after 24 hours of drug exposure, With forces (Ef) ([3]; mechanical forces): 0.345 | MTS absorbance after 24 hours of drug exposure, Without forces (E) ([3]; no forces): 0.522 | IC90 [4]: 0.05 µM | pIC50 ([5]; absence of mechanical stress): 4.65 | pIC50 ([5]; cells experiencing mechanical stress (0-20% elongation)): 6.70
